# Read-outs that look alike come from different tables or passages of the source.
# How the values were obtained:
# KB = test: MTT cytotoxicity assay, KB (Table 2); type: cell-based; conditions: 48 h incubation; for IC50: read-out: IC50 (μM) against KB
# Experimental: (§1) The in vitro cytotoxicity studies of the synthesized compounds were performed in three different cell lines (HeLa, Hek, and KB). The activities of the herein described analogues were compared to that of rhein itself and doxorubicin. Due to the poor solubility of the compounds, all of the solutions used for biological testing were prepared using DMSO as solvent.
# HeLa [1] = test: MTT cytotoxicity assay, HeLa (Table 2); conditions: for IC50 / IC50 (μM) against HeLa: Table 2; for cytotoxicity against HeLa cells compared to rhein: in words
# Experimental: as §1
# Hek = test: MTT cytotoxicity assay, Hek (Table 2); type: cell-based; conditions: for IC50: read-out: IC50 (μM) against Hek
# Experimental: as §1
# MOLT4 = test: MTT cytotoxicity evaluation of series 1 and 2 rhein analogues, MOLT4 (Tables 3, 4); conditions: for cytotoxicity against MOLT4 compared with rhein: in words
# HeLa [2] = test: MTT cytotoxicity evaluation of series 1 and 2 rhein analogues, HeLa (Tables 3, 4); type: cell-based; conditions: for potency in HeLa cells compared with rhein: in words
# human NBMM cells = test: WST cytotoxic assay on normal bone marrow mononuclear cells; type: cell-based; conditions: concentration of 1-2 μM
# Experimental: FIGS. 2a-2i are graphs showing the cytotoxicity of various Rhein analogues. Acute lymphoblastic leukemia (ALL) cell lines EU-1 (p53 normal) and EU-8 (p53 null) as well as normal human BM stroma cells were incubated with different concentrations of Rhein analogues as indicated for 24 h. Viability of cells was detected by Water soluble Tetrazolium (WST) dye assay. Data represent the mean percentage ±SD of the surviving cells (as compared to untreated controls) from three independent experiments.
# The cytotoxic and inhibitory effects of the compounds described herein on normal human BM cells in vitro, as compared with doxorubicin was evaluated.
# DNA damage = test: Comet images, mechanism of cancer cell death; type: cell-based
# mice = test: Toxicity in mice; type: in vivo; conditions: single injection at a dose of 15/kg
# Experimental: FIG. 6 is a table showing the estimated treatment doses and maximum tolerated dose (MTD) of MG1 in mice as compared with doxorubicin.
# Toxicity was also evaluated in mice. […] Subsequently, a single injection of MG1 at a dose of 400 mg/kg was administered via injection.
# […]. Toxicity was also evaluated in mice. […] Subsequently, a single injection of MG1 at a dose of 400 mg/kg was administered via injection.
# [3] = Homo sapiens, HeLa, 48 h, read-out: IC50 (μM) against HeLa, MTT, 48 h incubation
# [4] = Homo sapiens, HEK293, 48 h incubation
# [5] = Homo sapiens, MOLT-4, read-out: IC50 (μM) against MOLT4
# [6] = Homo sapiens, HeLa, MTT, Tables 3 and 4, read-out: IC50 (μM) against HeLa
# [7] = read-out: IC50 (μM) against HeLa, MTT, 48 h incubation
# [8] = read-out: IC50 (μM) against MOLT4, MTT, Tables 3 and 4
# [9] = MTT, Tables 3 and 4, read-out: IC50 (μM) against HeLa
smiles,measurement,setting,value
"O=C(CCl)Nc1cc(O)c2c(c1)C(=O)c1cccc(O)c1C2=O [Compound 5, 1,8-Dihydroxy-3-(2′-chloro-acetamido)-anthraquinone]",IC50 (μM) against KB,KB,low micro molar
same,IC50,"KB; Homo sapiens, KB, 48 h",4.5 µM
same,IC50,HeLa [1]; [3],4 µM
same,IC50 (μM) against HeLa,"HeLa [1]; MTT, 48 h incubation",low micro molar
same,cytotoxicity against HeLa cells compared to rhein,HeLa [1],significant improvement
same,IC50 (μM) against Hek,Hek; 48 h incubation,low micro molar
same,IC50,Hek; [4],4 µM
"O=C(CBr)Nc1cc(O)c2c(c1)C(=O)c1cccc(O)c1C2=O [Compound 6, 1,8-Dihydroxy-3-(2′-bromo-acetamido)-anthraquinone]",IC50,"KB; Homo sapiens, KB, 48 h",15 µM
same,IC50,HeLa [1]; [3],40 µM
same,times more potent than rhein against HeLa,HeLa [1]; ratio of IC50 values,2.5 fold
same,IC50,Hek; [4],8 µM
"O=C(CI)Nc1cc(O)c2c(c1)C(=O)c1cccc(O)c1C2=O [Compound 7, 1,8-Dihydroxy-3-(2′-iodo-acetamido)-anthraquinone]",IC50,"KB; Homo sapiens, KB, 48 h",9 µM
same,IC50,HeLa [1]; [3],10 µM
same,IC50,MOLT4; [5],10 µM
same,IC50,HeLa [2]; [6],17 µM
same,IC50,Hek; [4],2 µM
"O=C(CN1CCOCC1)Nc1cc(O)c2c(c1)C(=O)c1cccc(O)c1C2=O [Compound 9c, 1,8-dihydroxy-3-(2′-morpholino-acetamido)-anthraquinone]",IC50,MOLT4; [5],25 µM
same,IC50,HeLa [2]; [6],13 µM
"O=C(CN1CCCCC1)Nc1cc(O)c2c(c1)C(=O)c1cccc(O)c1C2=O [Compound 9d, 1,8-Dihydroxy-3-(2′-piperidinyl-acetamido)-anthraquinone]",IC50,MOLT4; [5],4.1 µM
same,IC50,HeLa [2]; [6],33 µM
"COc1cccc2c1C(=O)c1c(OC)cc(NC(=O)CBr)cc1C2=O [Compound 13, 1,8-dimethoxy-3-(2′-bromo-acetamido)-anthraquinone]",IC50,"KB; Homo sapiens, KB, 48 h",38 µM
same,IC50,HeLa [1]; [3],8 µM
same,IC50,Hek; [4],2.3 µM
"COc1cccc2c1C(=O)c1c(OC)cc(NC(=O)CI)cc1C2=O [Compound 14, 1,8-dimethoxy-3-(2′-iodo-acetamido)-anthraquinone]",IC50 (μM) against KB,KB,low micro molar
same,IC50,"KB; Homo sapiens, KB, 48 h",10 µM
same,IC50,HeLa [1]; [3],2.5 µM
same,IC50 (μM) against HeLa,"HeLa [1]; MTT, 48 h incubation",low micro molar
same,cytotoxicity against HeLa cells compared to rhein,HeLa [1],significant improvement
same,IC50 (μM) against Hek,Hek; 48 h incubation,low micro molar
same,IC50,Hek; [4],1.4 µM
"O=C(CCl)NCCCCNC(=O)c1cc(O)c2c(c1)C(=O)c1cccc(O)c1C2=O [Compound 17, 1,8-Dihydroxy-3-(9′-chloro-aceta-2′,7′diamido)-anthraquinone]",IC50,KB,19 µM
same,IC50,HeLa [1]; [7],16 µM
same,IC50,Hek; 48 h incubation,8 µM
"O=C(CBr)NCCCCNC(=O)c1cc(O)c2c(c1)C(=O)c1cccc(O)c1C2=O [Compound 18, 1,8-Dihydroxy-3-(9′-bromo-aceta-2′,7′diamido)-anthraquinone]",IC50 (μM) against KB,KB,low micro molar
same,IC50,KB,4.8 µM
same,IC50 (μM) against HeLa,"HeLa [1]; MTT, 48 h incubation",low micro molar
same,cytotoxicity against HeLa cells compared to rhein,HeLa [1],significant improvement
same,IC50,HeLa [1]; [7],3 µM
same,IC50 (μM) against Hek,Hek; 48 h incubation,low micro molar
same,IC50,Hek; 48 h incubation,1.4 µM
"O=C(CCl)NCCCOCCOCCOCCCNC(=O)c1cc(O)c2c(c1)C(=O)c1cccc(O)c1C2=O [Compound 21, 1,8-Dihydroxy-3-(18′-chloro-aceta-6′,9′,12′-trioxa-2′,16′-tridecanediamido)-anthraquinone]",IC50,KB,21 µM
same,IC50,HeLa [1]; [7],14 µM
same,IC50,Hek; 48 h incubation,8 µM
"O=C(CBr)NCCCOCCOCCOCCCNC(=O)c1cc(O)c2c(c1)C(=O)c1cccc(O)c1C2=O [Compound 22, 1,8-Dihydroxy-3-(18′-bromo-aceta-6′,9′,12′-trioxa-2′,16′-tridecanediamido)-anthraquinone]",IC50,KB,9 µM
same,IC50,HeLa [1]; [7],7 µM
same,IC50,Hek; 48 h incubation,2.2 µM
"O=C(CI)NCCCOCCOCCOCCCNC(=O)c1cc(O)c2c(c1)C(=O)c1cccc(O)c1C2=O [Compound 23, 1,8-Dihydroxy-3-(18′-iodo-aceta-6′,9′,12′-trioxa-2′,16′-tridecanediamido)-anthraquinone]",IC50,KB,8 µM
same,IC50,HeLa [1]; [7],5.8 µM
same,IC50,Hek; 48 h incubation,4 µM
"O=C1c2cccc(O)c2C(=O)c2c(O)cc(Sc3ccccc3)cc21 [Compound 24a, 1,8-Dihydroxy-3-(phenylthio)-anthraquinone]","potency increase compared with rhein, MOLT4",MOLT4,at least 30 fold
same,IC50,MOLT4; [5],1.4 µM
same,IC50 (μM) against MOLT4,"MOLT4; MTT, Tables 3 and 4",single digit μM level
same,"potency increase compared with rhein, HeLa",HeLa [2],at least 30 fold
same,IC50,HeLa [2]; [6],3.4 µM
same,IC50 (μM) against HeLa,"HeLa [2]; MTT, Tables 3 and 4",single digit μM level
"Cc1noc(C)c1-c1cc(O)c2c(c1)C(=O)c1cccc(O)c1C2=O [Compound 26a, 1,8-Dihydroxy-3-(3′,5′-dimethyl-isoxazol-4′-yl)-anthraquinone]",IC50,MOLT4; [8],14 µM
same,IC50,HeLa [2]; [9],16 µM
same,potency in HeLa cells compared with rhein,HeLa [2],moderate improvement in potency
"O=C1c2cccc(O)c2C(=O)c2c(O)cc(-c3cccs3)cc21 [Compound 26b, 1,8-Dihydroxy-3-(thiophen-2′-yl)-anthraquinone]",cytotoxicity against MOLT4 compared with rhein,MOLT4,decreased cytotoxicity
same,IC50,MOLT4; [8],> 100 µM
same,IC50,HeLa [2]; [9],> 100 µM
"Cc1cc(-c2cc(O)c3c(c2)C(=O)c2cccc(O)c2C3=O)ccc1N(C)C [Compound 26c, 1,8-Dihydroxy-3-(4′-dimethylamino-3′-methylphenyl)-anthraquinone]",IC50,MOLT4; [5],> 100 µM
same,cytotoxicity against MOLT4 compared with rhein,MOLT4,decreased cytotoxicity
same,IC50,HeLa [2]; [6],68 µM
same,potency in HeLa cells compared with rhein,HeLa [2],moderate improvement in potency
"O=C1c2cccc(O)c2C(=O)c2c(O)cc(-c3ccc(Sc4ccccc4)nc3)cc21 [Compound 26d, 1,8-Dihydroxy-3-(6′-phenylthio-pyridin-3′-yl)-anthraquinone]",IC50,MOLT4; [8],35 µM
same,IC50,HeLa [2]; [9],> 100 µM
"CC(C)(C)OCc1ccc(-c2cc(O)c3c(c2)C(=O)c2cccc(O)c2C3=O)cc1 [Compound 26e, 1,8-Dihydroxy-3-(4′-t-butoxymethyl-phenyl)-anthraquinone]",IC50,MOLT4; [5],22 µM
same,IC50,HeLa [2]; [6],> 100 µM
"COc1ccc(-c2cc(O)c3c(c2)C(=O)c2cccc(O)c2C3=O)cc1 [Compound 26f, 1,8-Dihydroxy-3-(4′-methoxyphenyl)-anthraquinone]",IC50,MOLT4; [5],29 µM
same,IC50,HeLa [2]; [6],> 100 µM
same,IC50,"HeLa [2]; Homo sapiens, HeLa, less than 50% cells killed at highest concentration, R^2 < 0.8, read-out: IC50 (μM) against HeLa, value inside parenthesis calculated by Prism 4 using sigmoidal curve fitting",20 µM
"O=C1c2cccc(O)c2C(=O)c2c(O)cc(-c3ccc(O)cc3)cc21 [Compound 26g, 1,8-Dihydroxy-3-(4′-hydroxyphenyl)-anthraquinone]",IC50,MOLT4; [5],21 µM
same,IC50,HeLa [2]; [6],9.9 µM
same,potency in HeLa cells compared with rhein,HeLa [2],moderate improvement in potency
"COc1cccc2c1C(=O)c1c(O)c3c(c(O)c1C2=O)C[C@@](O)(C(=O)CO)C[C@@H]3O[C@H]1C[C@H](N)[C@H](O)[C@H](C)O1 [Doxorubicin, reference compound]",IC50,"KB; Homo sapiens, KB",0.4 µM
same,IC50,HeLa [1]; [3],1.4 µM
same,IC50,HeLa [1]; [7],1.5 µM
same,IC50,MOLT4; [5],0.04 µM
same,IC50,HeLa [2]; [6],0.98 µM
same,IC50,Hek; [4],0.15 µM
same,human NBMM cells survived after treatment,human NBMM cells,40-50%
same,mechanism of cancer cell death (DNA damage),DNA damage,induces cancer cell death through DNA damage
same,death of mice,mice,death of all mice at day 7 due to cardiac toxicity
"O=C(O)c1cc(O)c2c(c1)C(=O)c1cccc(O)c1C2=O [Rhein, reference compound]",IC50,KB,> 100 µM
same,IC50,"KB; Homo sapiens, KB, 48 h",≥ 100 µM
same,IC50,HeLa [1]; [3],100 µM
same,IC50,HeLa [1]; [7],> 100 µM
same,IC50,MOLT4; [5],37 µM
same,IC50,HeLa [2]; [6],> 100 µM
same,IC50,Hek; [4],> 100 µM
